In brackets after ≈: the same amount, converted by molar mass. Activity calls are given as the source filed them. The rule behind the calls is not given here. Peptide text beside a SMILES is read from it. * marks the point of attachment. Lauroyl = CCCCCCCCCCCC(=O)*
Key:
Micrococcus luteus [1] = assay: microbe, parasite or virus in culture; conditions: ATCC 9341, 24 h
Description: Antimicrobial activity against Micrococcus luteus ATCC 9341 assessed as inhibition of visible growth after 24 hrs at pH 7.4

Candida albicans = assay: microbe, parasite or virus in culture; conditions: ATCC 10231, 24 h
Description: Antimicrobial activity against Candida albicans ATCC 10231 assessed as inhibition of visible growth after 24 hrs at pH 7.4

Klebsiella pneumoniae [2] = assay: Antimicrobial activity against Klebsiella pneumoniae ATCC 9721 at 250 ug/ml at pH 7.4; assay type: functional, organism-based
in vitro = conditions: human, erythrocytes
Description: Toxicity in human erythrocytes assessed as hemolytic activity measured after 10 mins shaking

Bacillus subtilis = assay: microbe, parasite or virus in culture; conditions: ATCC 6633, 24 h
Description: Antimicrobial activity against Bacillus subtilis ATCC 6633 assessed as inhibition of visible growth after 24 hrs at pH 7.4

[3] = tested on: Staphylococcus epidermidis; assay: microbe, parasite or virus in culture; conditions: ATCC 155-1, 24 h
Description: Antimicrobial activity against Staphylococcus epidermidis ATCC 155-1 assessed as inhibition of visible growth after 24 hrs at pH 7.4

Staphylococcus aureus [4] = assay: Antimicrobial activity against Staphylococcus aureus ATCC 25178 at 250 ug/ml at pH 7.4; assay type: functional, organism-based
Pseudomonas aeruginosa = assay: microbe, parasite or virus in culture; conditions: ATCC 9721, 24 h
Description: Antimicrobial activity against Pseudomonas aeruginosa ATCC 9721 assessed as inhibition of visible growth after 24 hrs at pH 7.4

Staphylococcus aureus [5] = assay: microbe, parasite or virus in culture; conditions: ATCC 25178, 24 h
Description: Antimicrobial activity against Staphylococcus aureus ATCC 25178 assessed as inhibition of visible growth after 24 hrs at pH 7.4

Escherichia coli [6] = assay: microbe, parasite or virus in culture; conditions: ATCC 27325, 24 h
Description: (§1) Antimicrobial activity against Escherichia coli ATCC 27325 assessed as inhibition of visible growth after 24 hrs at pH 7.4

Klebsiella pneumoniae [7] = assay: microbe, parasite or virus in culture; conditions: ATCC 9721, 24 h
Description: Antimicrobial activity against Klebsiella pneumoniae ATCC 9721 assessed as inhibition of visible growth after 24 hrs at pH 7.4

Micrococcus luteus [8] = assay: Antimicrobial activity against Micrococcus luteus ATCC 9341 at 250 ug/ml at pH 7.4; assay type: functional, organism-based
Escherichia coli [9] = conditions: ATCC 27325
Description: as §1

Description for physchem: Dissociation constant, pKa of the compound

Row | SMILES | MIC (Micrococcus luteus [1]) | MIC (Candida albicans) | HC50 at 10 min (in vitro) | MIC (Bacillus subtilis) | MIC [3] | MIC (Pseudomonas aeruginosa) | MIC (Staphylococcus aureus [5]) | pKa (physchem) | MIC (Escherichia coli [6]) | MIC (Klebsiella pneumoniae [7]) | Activity (Klebsiella pneumoniae [2]) | Activity (Staphylococcus aureus [4]) | Activity (Micrococcus luteus [8]) | Activity (Escherichia coli [9])
1 | CCCCCCCCCCCC(=O)NCCCC[C@H](N)C(=O)NCCCCNCCCNC(=O)[C@@H](N)CCCCNC(=O)CCCCCCCCCCC | 142 µM (≈ 109 µg/mL) | 285 µM (≈ 218 µg/mL) | 12 µM | 142 µM (≈ 109 µg/mL) | 142 µM (≈ 109 µg/mL) | 142 µM (≈ 109 µg/mL) | – | – | – | – | inactive | inactive | – | –
2 | CCCCCCCCCCCC(=O)NCCCC[C@@H](C(=O)NCCCCCCNC(=O)[C@H](CCCCNC(=O)CCCCCCCCCCC)[N+](C)(C)C)[N+](C)(C)C | 67 µM | 67 µM | 11 µM | 16 µM | 16 µM | – | 67 µM | – | – | – | inactive | – | – | –
3 | CCCCCCCCCCCC(=O)N[C@@H](CCCNC(=N)N)C(=O)N[C@@H](CCCCN)C(=O)OC (Lauroyl-Arg-Lys-OMe) | 28 µM (≈ 14 µg/mL) | 218 µM (≈ 109 µg/mL) | 1350 µM | 28 µM (≈ 14 µg/mL) | 218 µM (≈ 109 µg/mL) | 218 µM (≈ 109 µg/mL) | 54 µM (≈ 26.9 µg/mL) | 10 | 218 µM (≈ 109 µg/mL) | 218 µM (≈ 109 µg/mL) | – | – | – | –
4 | CCCCCCCCCCCC(=O)N[C@@H](CCCCN)C(=O)NCCCCCCNC(=O)[C@H](CCCCN)NC(=O)CCCCCCCCCCC | 154 µM (≈ 114 µg/mL) | – | 475 µM | 308 µM (≈ 227 µg/mL) | 77 µM (≈ 56.8 µg/mL) | – | 154 µM (≈ 114 µg/mL) | – | – | – | inactive | – | – | inactive
5 | CCCCCCCCCCCC(=O)N[C@@H](CCCCN)C(=O)OC | 83 µM (≈ 28.4 µg/mL) | 166 µM (≈ 56.9 µg/mL) | 199 µM | 331 µM (≈ 113 µg/mL) | 83 µM (≈ 28.4 µg/mL) | 331 µM (≈ 113 µg/mL) | 166 µM (≈ 56.9 µg/mL) | 10 | 331 µM (≈ 113 µg/mL) | 331 µM (≈ 113 µg/mL) | – | – | – | –
6 | CCCCCCCCCCCC(=O)N[C@@H](CCCNC(=N)N)C(=O)NCCCC[C@H](N)C(=O)OC | 436 µM (≈ 217 µg/mL) | 436 µM (≈ 217 µg/mL) | 791 µM | 218 µM (≈ 109 µg/mL) | 436 µM (≈ 217 µg/mL) | – | 436 µM (≈ 217 µg/mL) | 10 | – | – | inactive | – | – | –

More lines, in order of falling MIC (Bacillus subtilis), values ahead:

Row | MIC (Micrococcus luteus [1]) | MIC (Candida albicans) | HC50 at 10 min (in vitro) | MIC (Bacillus subtilis) | MIC [3] | MIC (Pseudomonas aeruginosa) | MIC (Staphylococcus aureus [5]) | pKa (physchem) | MIC (Escherichia coli [6]) | MIC (Klebsiella pneumoniae [7]) | SMILES | Activity (Klebsiella pneumoniae [2]) | Activity (Staphylococcus aureus [4]) | Activity (Micrococcus luteus [8]) | Activity (Escherichia coli [9])
7 | 331 µM (≈ 113 µg/mL) | 166 µM (≈ 56.9 µg/mL) | 391 µM | 331 µM (≈ 113 µg/mL) | 166 µM (≈ 56.9 µg/mL) | – | 331 µM (≈ 113 µg/mL) | 10 | 166 µM (≈ 56.9 µg/mL) | 331 µM (≈ 113 µg/mL) | CCCCCCCCCCCC(=O)NCCCC[C@H](N)C(=O)OC | – | – | – | –
8 | – | – | 116 µM | 308 µM (≈ 227 µg/mL) | 38 µM (≈ 28 µg/mL) | – | – | – | – | – | CCCCCCCCCCCC(=O)NCCCC[C@H](N)C(=O)NCCCCCCNC(=O)[C@@H](N)CCCCNC(=O)CCCCCCCCCCC | inactive | inactive | inactive | –

Reference: ChEMBL document CHEMBL1671782, “Cationic surfactants derived from lysine: effects of their structure and charge type on antimicrobial and hemolytic activities” (J Med Chem, 2011)
